Several values for one entry are separate records, joined by “and”; a condition that tells them apart may be missing. Equal values may be shown once. Read-outs that look alike come from different tables or passages of the source.
Molecular target: T1, GluN1/GluN2B receptors (UniProt P35439+Q01097)
T1 construct: expressed in transfected cells; host or cells: HEK-293 cells (ECACC, Cat #96121229)
Test: Whole-cell patch-clamp and photomodulation in HEK cells expressing GluN1/GluN2B
Assay type: cell-based, rat GluN1, mouse GluN2B
Settings: for inhibition of GluN1/GluN2B currents in HEK cells: 2 µM; for inhibition at 2 µM: HEK293, 2 µM, read-out: inhibition of GluN1/GluN2B currents in HEK cells
Text: Now that we have established the photodependence of OptoNAM-3 action, we tested whether this compound could be used to perform real-time modulation of NMDAR activity with light. To answer this question, we turned to mammalian cells, whose transparency allows homogeneous illumination of all membrane-expressed NMDARs. OptoNAM-3 was perfused together with agonists glutamate and glycine on HEK cells expressing GluN1/GluN2B receptors. […] OptoNAM-3 thus allows real-time and reversible inhibition of GluN1/GluN2B activity with light. By plotting the effect of different concentrations of OptoNAM-3 in the dark and during UV illumination, we observed a 20-fold UV-induced shift of OptoNAM-3 IC50 compared to the dark condition (Figure 4C). […] The stronger photodependence of OptoNAM-3 action on HEK cells might stem either from differences between cellular expression systems (Xenopus oocytes vs HEK cells) or from the different irradiation contexts (in solution for experiments in Xenopus oocytes and in a cellular context for HEK cells) (see below).
HEK293 cells were used for heterologous expression of recombinant NMDA receptors studies using whole-cell patch-clamp. Wild-type NMDARs were expressed in HEK-293 cells (obtained from ECACC, Cat #96121229). HEK cells were cultured in DMEM + glutamax medium supplemented with 10% fetal bovine calf serum and 1% penicillin/streptomycin (5000 U/mL) and cultured under standard cell culture conditions (5% CO2, 37 °C). Transfections were performed using polyethylenimine (PEI) in a cDNA/PEI ratio of 1:3 (v/v). Cells were cotransfected with a DNA mixture containing plasmids encoding wild-type GluN1, wild-type GluN2A or GluN2B, and eGFP. The total amount of DNA was 1.0 μg per 500 μL of transfected medium containing […] diameter coverslip, and the mass ratio of GluN1:GluN2B:eGFP was 1:2:1 (1:1:1 for GluN2A). 150 μM of D-APV was added to the culture medium after transfection.
Receptor functionality, OptoNAM-3 photodependence (dark then UV light) of activity, and association/dissociation kinetics (with and without UV light) were assessed in patch-clamp recordings of lifted whole cells 24–72 h post transfection (cells were not lifted for the 2 light cycles protocol, i.e., when “perfusion turned off” was written below current traces). Positively transfected cells were visualized by GFP fluorescence. The extracellular solution contained (in mM) 140 NaCl, 2.8 KCl, 1 CaCl2, 10 HEPES, 20 sucrose, and 0.01 DTPA (290–300 mOsm), pH adjusted to 7.3 using NaOH. […] Currents were sampled at 10 kHz and low-pass filtered at 2 kHz using an Axopatch 200B amplifier, a 1550B Digidata, and Clampex 10.6 (Molecular Devices). Agonists (100 μM glutamate and 100 μM glycine) were applied using a multibarrel solution exchanger (RSC 200; BioLogic). Recordings were performed at a holding potential of −60 mV and at room temperature.
Computer-controlled light pulses during electrophysiological recordings were provided from high power sensitive LEDs (CoolLED pE-4000: 4 channels each controlling 4 wavelengths from 365 to 770 nm). The LED port was directly coupled via a microscope adaptor to the fluorescence port of an inverted IX73 Olympus microscope. The output beam of the LED entry was directed toward the sample thanks to a mirror (Chroma) and applied to the center of the recording dish through a 10× objective (irradiance ∼4 mW/mm^2 for 365, 385, and 435 nm; ∼6.5 mW/mm^2 for 460 nm; ∼2 mW/mm^2 for 490 and 525 nm; ∼1.5 mW/mm^2 for 500 nm, and ∼4.5 mW/mm^2 for 550 and 580 nm) (Olympus, 0.30 N.A.). Light power was measured in the center of the recording dish plane with an optical power meter (1916-C, Newport) equipped with a calibrated UV/D detector, and irradiance was obtained upon dividing light power by the illuminated field of the microscope 10× objective (19 mm^2).
Data were collected and analyzed using pClamp 10.5 (Molecular Devices) and fitted using Sigmaplot 11.0 (SSPS). […]

[1] = 550 nm illumination from UV state

T1 sequence (Q01097 27-1482, other chains not shown): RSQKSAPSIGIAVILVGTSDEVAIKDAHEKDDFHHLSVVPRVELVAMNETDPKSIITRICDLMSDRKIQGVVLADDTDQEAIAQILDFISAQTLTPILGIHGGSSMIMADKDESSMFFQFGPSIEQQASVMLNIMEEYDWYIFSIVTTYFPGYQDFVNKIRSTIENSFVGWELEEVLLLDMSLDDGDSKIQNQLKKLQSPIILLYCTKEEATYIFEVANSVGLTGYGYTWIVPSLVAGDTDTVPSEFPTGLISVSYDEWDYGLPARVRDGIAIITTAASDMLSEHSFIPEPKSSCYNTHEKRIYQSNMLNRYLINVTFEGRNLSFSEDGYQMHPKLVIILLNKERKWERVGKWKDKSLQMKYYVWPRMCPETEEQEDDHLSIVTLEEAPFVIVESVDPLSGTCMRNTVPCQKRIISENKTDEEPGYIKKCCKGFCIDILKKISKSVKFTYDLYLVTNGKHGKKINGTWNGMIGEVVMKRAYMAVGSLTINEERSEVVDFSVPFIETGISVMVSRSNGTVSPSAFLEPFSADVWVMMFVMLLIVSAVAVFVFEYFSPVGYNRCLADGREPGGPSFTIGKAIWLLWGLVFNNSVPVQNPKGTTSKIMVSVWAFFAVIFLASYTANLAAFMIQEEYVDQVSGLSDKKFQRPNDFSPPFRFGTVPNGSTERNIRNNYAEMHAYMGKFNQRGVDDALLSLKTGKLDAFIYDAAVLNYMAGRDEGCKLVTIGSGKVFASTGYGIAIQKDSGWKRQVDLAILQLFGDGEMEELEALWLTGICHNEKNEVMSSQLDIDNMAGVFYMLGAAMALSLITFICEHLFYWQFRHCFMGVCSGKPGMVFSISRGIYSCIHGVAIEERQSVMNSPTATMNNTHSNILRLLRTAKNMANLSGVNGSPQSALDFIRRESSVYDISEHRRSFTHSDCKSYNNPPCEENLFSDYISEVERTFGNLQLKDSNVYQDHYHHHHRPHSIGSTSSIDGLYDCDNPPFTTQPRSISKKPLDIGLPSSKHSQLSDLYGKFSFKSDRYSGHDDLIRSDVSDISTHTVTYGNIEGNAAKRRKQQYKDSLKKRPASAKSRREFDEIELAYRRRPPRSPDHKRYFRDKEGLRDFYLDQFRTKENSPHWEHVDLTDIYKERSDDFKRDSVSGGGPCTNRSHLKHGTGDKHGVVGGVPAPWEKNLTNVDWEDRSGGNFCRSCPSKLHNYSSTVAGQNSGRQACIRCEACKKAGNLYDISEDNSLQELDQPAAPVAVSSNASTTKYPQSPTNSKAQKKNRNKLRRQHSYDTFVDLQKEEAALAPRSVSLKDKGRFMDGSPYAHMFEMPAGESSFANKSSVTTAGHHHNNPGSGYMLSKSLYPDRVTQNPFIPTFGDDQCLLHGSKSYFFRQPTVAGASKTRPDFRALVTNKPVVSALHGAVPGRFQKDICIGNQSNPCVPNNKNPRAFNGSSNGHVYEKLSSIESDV

## c1ccc(/N=N/c2ccc(CCNc3ccncc3)cc2)cc1 [OptoNAM-3, (E)-N-(4-(Phenyldiazenyl)phenethyl)pyridin-4-amine]
[1]
  inhibition of GluN1/GluN2B currents in HEK cells: 58.559%
  inhibition at 2 µM: 59%
dark
  inhibition of GluN1/GluN2B currents in HEK cells: 76.928%
  inhibition at 2 µM: 77%
Under 365 nm illumination
  inhibition of GluN1/GluN2B currents in HEK cells: 23.428%
  inhibition at 2 µM: 23%
HEK cells, 365 nm
  tau off of inhibition relief under UV illumination: 0.814 s
HEK cells, dark
  tau off of inhibition relief by washout in the dark: 30.520 s
[OptoNAM-3] 0.050 µM, HEK cells, 365 nm illumination
  Relative current (IOpto/I0): 0.936
[OptoNAM-3] 0.050 µM, HEK cells, dark PSS (trans)
  Relative current (IOpto/I0): 0.679
[OptoNAM-3] 0.125 µM, HEK cells, 365 nm illumination
  Relative current (IOpto/I0): 0.926
[OptoNAM-3] 0.125 µM, HEK cells, dark PSS (trans)
  Relative current (IOpto/I0): 0.513
[OptoNAM-3] 0.300 µM, HEK cells, 365 nm illumination
  Relative current (IOpto/I0): 0.848
[OptoNAM-3] 0.300 µM, HEK cells, dark PSS (trans)
  Relative current (IOpto/I0): 0.435
[OptoNAM-3] 0.500 µM, HEK cells, dark PSS (trans)
  Relative current (IOpto/I0): 0.261
[OptoNAM-3] 1.000 µM, HEK cells, 365 nm illumination
  Relative current (IOpto/I0): 0.722
[OptoNAM-3] 1.000 µM, HEK cells, dark PSS (trans)
  Relative current (IOpto/I0): 0.205
[OptoNAM-3] 1.500 µM, HEK cells, 365 nm illumination
  Relative current (IOpto/I0): 0.713
[OptoNAM-3] 1.500 µM, HEK cells, dark PSS (trans)
  Relative current (IOpto/I0): 0.181
[OptoNAM-3] 2.000 µM, HEK cells, 365 nm illumination
  Relative current (IOpto/I0): 0.705
[OptoNAM-3] 2.000 µM, HEK cells, dark PSS (trans)
  Relative current (IOpto/I0): 0.166
[OptoNAM-3] 2.500 µM, HEK cells, 365 nm illumination
  Relative current (IOpto/I0): 0.442
[OptoNAM-3] 2.500 µM, HEK cells, dark PSS (trans)
  Relative current (IOpto/I0): 0.034
Cell illuminated at 365 nm, read-out: IC50 on GluN1/GluN2B in HEK cells illuminated at 365 nm
  IC50: 2.95 µM and 3 µM
dark, read-out: IC50 on GluN1/GluN2B in HEK cells in the dark
  IC50: 0.15 µM
